This is an account of results in US11666554B2, “Use of a carbamate compound to prevent, alleviate or treat visceralgia or pain arising from visceral disease” (SK BIOPHARMACEUTICALS CO., LTD., priority 2017, dated 2023).

Marks after values point to notes of the source that are not given here.

In this assay the test system is Male ICR mice. Briefly: Acetic acid-induced writhing test. Conditions: for Number of writhing: mean ± standard error. In kind it is in vivo. On the procedure:
As a representative animal experimental model widely used to confirm the analgesic effect on visceral pain, an acetic acid-induced writhing test is used [T. J. Ness, Models of Visceral Nociception (1999) ILAR Journal 40: 119-128]. At this time, acetic acid is a chemical that is a stimulus used to induce pain, and when it is injected into the abdominal cavity of the mouse, characteristic writhing pain behaviors are induced in which due to the inflammatory pain caused in the peritoneum the mouse stretches both the forelimbs and the hind legs, and touches the abdomen to the floor or twists. However, when a drug having an analgesic effect, such as morphine, is injected into a mouse, the writhing pain behaviors of the mouse is reduced. As such, the degree of decreasing the writhing pain behaviors is measured to confirm the analgesic effect of the drug.
Male ICR mice (body weight: 24 to 30 g) were used in this experiment. The experimental animals were maintained at a light-and-darkness cycle of 12 hours, a temperature of 22 to 25° C., a relative humidity of 40 to 60%, and free access to water and food. For stabilization of animal behavior, the experimental animals were allowed to acclimate to the laboratory conditions for at least 1 hour before the test.
As a vehicle serving as the negative control, 30% PEG400 (v/v) was used, and Test Compound was dissolved in the vehicle and administered orally at doses of 3, 10 and 30 mg/kg. Morphine which is the positive control was dissolved in saline and administered subcutaneously at a dose of 10 mg/kg. The final dose of solution was 10 ml/kg.
After 1 hour of oral administration of the vehicle and Test Compound or 30 minutes after subcutaneous administration of morphine, the mice were gently restrained, and 0.8% (v/v) acetic acid solution was administered intraperitoneally to the abdomen of the mice. The mice were immediately returned to the observation box, and the number of writhing pain behaviors of the mice for 10 minutes was recorded.
The effect of the compound was expressed as the mean±standard error, and statistical significance was recognized when data differed by p<0.05 using one-way ANOVA and Dunnett's test.

Take `CN1CC[C@]23c4c5ccc(O)c4O[C@H]2[C@@H](O)C=C[C@H]3[C@H]1C5` [Morphine, reference compound]: the “Suppression rate compared to negative control” value (10 mg/kg s.c.) is 98.2% and the “Suppression rate compared to negative control” value (10 mg/kg s.c., listed as morphine) stood at 98.2%. The Number of writhing (10 mg/kg s.c., 30 minutes before i.p. 0.8% acetic acid) is 0.4 ± 0.3^1) writes/10 minutes.
For `NC(=O)O[C@@H](Cn1ncnn1)c1ccccc1Cl` [Test Compound, Carbamic acid (R)-1-(2-chlorophenyl)-2-tetrazol-2-yl-ethyl ester], the “Suppression rate compared to negative control” value was 25.8% (3 mg/kg p.o.), 66.1% (10 mg/kg p.o.) and 100% (30 mg/kg p.o.). Moreover, the Number of writhing was 17.3 ± 2.6 writes/10 minutes (3 mg/kg p.o., 1 hour before i.p. 0.8% acetic acid); 7.9 ± 2.4^1) writes/10 minutes (10 mg/kg p.o., 1 hour before i.p. 0.8% acetic acid); 0.0 ± 0.0^1) writes/10 minutes (30 mg/kg p.o., 1 hour before i.p. 0.8% acetic acid).
